Converted amounts (≈) assume the structure as drawn.
Assays:
A549 = test system: A549; design: method as in earlier work; conditions: A549 tumour cells; ref 6 (Alegaon et al.); cited from earlier work
MCF-7 = test system: MCF-7; design: method as in earlier work; conditions: MCF-7 tumour cells; ref 6 (Alegaon et al.); cited from earlier work
[1] = test system: Escherichia coli ATCC 25922; experiment: Broth microdilution MIC, E. coli ATCC 25922; assay type: cell-based; conditions: ATCC25922, 18 h, 35 °C, read-out: Concentration inhibiting E. coli ATCC 25922 growth (MIC)
Experimental: (§1) Newly synthesised compounds’ antibacterial activities were tested in vitro against six aerobic bacteria reference strains: three Gram-positive (Staphylococcus aureus ATCC 25923, methicillin-resistant S. aureus MIKROBANK 14.001 reference strain from National Medicines Institute in Warsaw, and Staphylococcus epidermidis ATCC 12228) and three Gram-negative (Escherichia coli ATCC 25922, Proteus mirabilis ATCC 12453, and Pseudomonas aeruginosa ATCC 9027).
(§2) Bacterial cell suspensions equivalent to 0.5 McFarland (1.5 × 10^8 CFU/ml) were prepared in 0.85% sterile saline. Tested compounds’ stock solutions (50 mg/ml) were dissolved in dimethyl sulphoxide (DMSO).
Bacteria strain susceptibility to tested agents was determined by broth microdilution method. Broth microdilution method was carried out in accordance with Clinical and Laboratory Standards Institute recommendations and was used as reference method. […]
Tested compounds two-fold dilutions in Mueller–Hinton broth without bacteria were blank control wells (incubated on equal conditions). […] After incubation (at 35 °C for 18 h), bacterial cultures’ optical density was measured by microplate reader (BioTek Synergy H4 Hybrid Reader) at 600 nm. The MIC values were determined by the comparison of broth bacterial culture OD600 containing tested concentrations of examined substances to blank control wells.

[2] = test system: human lung carcinoma (A549); experiment: MTT antiproliferative assay, A549 cells; assay type: cell-based; conditions: for IC50: Homo sapiens, MTT, 48 h exposure, read-out: IC50 [µg/ml] ± SEM, A549; for SI [IC50BJ/IC50], A549: safety index = IC50 normal cells (BJ)/IC50 A549
Experimental: (§3) The experiment was carried out using normal human skin fibroblasts (BJ) and tumour cell lines: human lung carcinoma (A549), human hepatocellular carcinoma (HepG2), and human breast adenocarcinoma (MCF-7). All cell lines were obtained from ATCC (American Type Culture Collection, England, UK) and cultured in the appropriate, recommended by ATCC, culture medium, additionally supplemented with 10% foetal bovine serum and antibiotics: 100 U/ml penicillin and 100 µg/ml streptomycin. The cells were maintained at 37 °C in a humidified atmosphere of 5% CO2 and 95% air. Antiproliferative activity of the new compounds was assessed by, commonly used for this purpose, colorimetric MTT assay. Cells with active mitochondrial dehydrogenases reduced intracellularly the tetrazolium dye into purple formazan, which is proportional to the number of viable cells. The cells were seeded in 96-multiwell plates in 100 μl of the appropriate complete culture medium at a concentration of 7 × 10^3 cells/well in the case of BJ cells (normal fibroblasts), 1 × 10^4 cells/well in the case of A549 cells (lung cancer), 1.5 × 10^4 cells/well in the case of HepG2 cells (liver cancer), and 2 × 10^4 cells/well in the case of MCF-7 cells (breast cancer) so as to obtain 60–70% confluent culture after 24 h of incubation at 37 °C – the cells are then in the log (logarithmic) phase, during a period of active proliferation, but still have an unoccupied space to divide. Afterwards, the culture medium was discarded and replaced with 100 µl of different concentrations of new tested compounds and reference antiproliferative agent: irinotecan. The stock solutions of the compounds were prepared in DMSO, and solvent control was being tested concurrently to exclude toxicity attributed to DMSO. Ten serial two-fold dilutions using culture medium were performed to prepare different concentrations of the tested compounds, and the highest tested concentration was 200 µg/ml. Untreated cells (maintained in the complete culture medium) served as a negative control. After exposing cells for 48 h to the tested derivatives, the MTT assay was performed as described earlier. Three independent experiments (n = 3) were performed in a quadruplicate. The obtained data were analysed using GraphPad Prism 5, version 5.03 software (La Jolla, CA). […] Moreover, safety index (SI) was calculated using the following formula: SI=IC50normal cells (BJ)/IC50cancer cells

[3] = test system: human hepatocellular carcinoma (HepG2); experiment: MTT antiproliferative assay, HepG2 cells; assay type: cell-based; conditions: for IC50: Homo sapiens, MTT, 48 h exposure, read-out: IC50 [µg/ml] ± SEM, HepG2
Experimental: as §3

[4] = test system: Staphylococcus aureus ATCC 25923; experiment: Broth microdilution MIC, S. aureus ATCC 25923; assay type: cell-based; conditions: 35 °C; for Minimal inhibitory concentration MIC, Staphylococcus aureus 25923: 18 h; for MIC: Staphylococcus aureus, ATCC25923, 18 h, read-out: Minimal inhibitory concentration MIC, Staphylococcus aureus 25923
Experimental: as §1, §2
(§4) Bacteria strain susceptibility to tested agents was determined by broth microdilution method. Broth microdilution method was carried out in accordance with Clinical and Laboratory Standards Institute recommendations and was used as reference method. Mueller–Hinton broth containing two-fold dilutions of the tested substances (at concentrations ranging from 3.91 to 1000 µg/ml) was used to determine their minimal inhibitory concentration (MIC) which is the lowest concentration of an antibacterial that will inhibit the visible growth of a microorganism after 18 h of incubation). Mueller–Hinton broth is recommended as the medium of choice for susceptibility testing of commonly isolated, rapidly growing aerobic, or facultative organisms. Gentamicin (KRKA, Slovenia), an aminoglycoside antibiotic active against a wide range of human bacterial infections, mostly Gram-negative bacteria including Pseudomonas, Proteus, Serratia, and the Gram-positive Staphylococcus, was used as a control antibacterial agent (at concentration from 0.12 µg to 1000 µg).
(§5) Tested compounds two-fold dilutions in Mueller–Hinton broth without bacteria were blank control wells (incubated on equal conditions). Polystyrene trays containing 96 wells were filled with serial two-fold Mueller–Hinton broth dilutions of tested agents. Next, the broth was inoculated with 20 μl of 0.5 McFarland microbial suspension (previously diluted 1:10 by Mueller–Hinton broth). Total volume per each well was 200 μl. After incubation (at 35 °C for 18 h), bacterial cultures’ optical density was measured by microplate reader (BioTek Synergy H4 Hybrid Reader) at 600 nm. The MIC values were determined by the comparison of broth bacterial culture OD600 containing tested concentrations of examined substances to blank control wells.

[5] = test system: Staphylococcus epidermidis ATCC 12228; experiment: Broth microdilution MIC, S. epidermidis ATCC 12228; assay type: cell-based; conditions: 35 °C; for Minimal inhibitory concentration MIC, Staphylococcus epidermidis 12228: 18 h; for MIC: Staphylococcus epidermidis, ATCC12228, 18 h, read-out: Minimal inhibitory concentration MIC, Staphylococcus epidermidis 12228
Experimental: as §1, §2, §4, §5

[6] = test system: methicillin-resistant S. aureus MIKROBANK 14.001; experiment: Broth microdilution MIC, methicillin-resistant S. aureus; assay type: cell-based, Staphylococcus aureus; conditions: methicillin-resistant strain, 18 h, 35 °C; for MIC: Staphylococcus aureus, read-out: Minimal inhibitory concentration MIC, Staphylococcus aureus MIKROBANK 14.001
Experimental: as §1, §2, §4, §5

[7] = test system: normal human skin fibroblasts (BJ); experiment: MTT assay, normal fibroblasts BJ; assay type: cell-based; conditions: Skin fibroblast, 48 h exposure, read-out: IC50 [µg/ml] ± SEM, BJ
Experimental: as §3

[8] = test system: human breast adenocarcinoma (MCF-7); experiment: MTT antiproliferative assay, MCF-7 cells; assay type: cell-based; conditions: for IC50: Homo sapiens, MCF7, MTT, 48 h exposure, read-out: IC50 [µg/ml] ± SEM, MCF-7
Experimental: as §3

[9] = MCF-7 cells, compared to irinotecan

Structure (SMILES) | IC50 ([2]; A549 cells) [µg/mL] | SI [IC50BJ/IC50], A549 [2] | IC50 ([3]; HepG2 cells) [µg/mL] | Minimal inhibitory concentration MIC, Staphylococcus aureus 25923 [4] [µg/mL] | MIC [4] [µg/mL] | Minimal inhibitory concentration MIC, Staphylococcus epidermidis 12228 [5] [µg/mL] | MIC [5] [µg/mL] | MIC [6] [µg/mL] | Minimal inhibitory concentration MIC, Staphylococcus aureus MIKROBANK 14.001 [6] [µg/mL] | melting point [°C] | IC50 [7] [µg/mL] | IC50 ([8]; MCF-7 cells) [µg/mL] | other results
COc1cc(-c2nnc(NC(=O)CC3SC(=O)NC3=O)s2)cc(OC)c1OC (stereo not drawn) [2-(2,4-dioxo-1,3-thiazolidin-5-yl)-N-[5-(3,4,5-trimethoxyphenyl)-1,3,4-thiadiazol-2-yl]acetamide] | – | – | – | – | – | – | – | – | – | – | – | – | IC50, A549 (literature) (A549): 12.7 µg/mL (≈ 29.9 µM); IC50, MCF-7 (literature) (MCF-7): 15.28 µg/mL (≈ 36 µM)
O=C(C=C1SC(=O)NC1=O)Oc1ccccc1C=NNC(=O)c1cccc(Cl)c1 [Compound 18, 2-{[2-(3-Chlorobenzoyl)hydrazinylidene]methyl}phenyl (2,4-dioxo-1,3-thiazolidin-5-ylidene)acetate] | 8.08 ± 1.05 (≈ 18.8 µM) | 1.24 | 3.86 ± 1.07 (≈ 8.98 µM) | 62.5 | 62.5 | 125 | 125 | 125 | 125 | 243 to 245 | 10.1 ± 1.18 (≈ 23.4 µM) | 1.59 ± 1.06 (≈ 3.7 µM) | MIC [1]: 125 µg/mL; IC50 fold lower compared to irinotecan, A549 ([2]; A549 cells, compared to irinotecan): five-fold lower; IC50 fold lower compared to irinotecan, HepG2 ([3]; HepG2 cells, compared to irinotecan): four-fold lower; IC50 fold lower than IC50 of irinotecan, MCF-7 [8, 9]: 13 fold; SI value compared to the reference substance, MCF-7 [8, 9]: three-fold higher
Cc1ccc(NC(=S)NN=Cc2cccc(OC(=O)CC3SC(=O)NC3=O)c2)cc1 (stereo not drawn) [Compound 23, 3-[{2-[(4-Methylphenyl)carbamothioyl]hydrazinylidene}methyl]phenyl (2,4-dioxo-1,3-thiazolidin-5-yl)acetate] | 31.3 ± 1.66 (≈ 70.8 µM) | 0.80 | 15.2 ± 1.25 (≈ 34.3 µM) | 125 | 125 | 62.5 | 62.5 | 125 | 125 | 194 to 196 | 25.2 ± 1.52 (≈ 56.9 µM) | 34.2 ± 1.12 (≈ 77.2 µM) | SI [IC50BJ/IC50], HepG2 ([3]; safety index = IC50 normal cells (BJ)/IC50 HepG2): 1.66; SI [IC50BJ/IC50], MCF-7 ([8]; safety index = IC50 normal cells (BJ)/IC50 MCF-7): 0.74

Reference: publication PMC6010082, “Synthesis and in vitro antiproliferative and antibacterial activity of new thiazolidine-2,4-dione derivatives” (Journal of Enzyme Inhibition and Medicinal Chemistry, 2017)
